Data reported in ChEMBL document CHEMBL1138114, “Convergent, parallel synthesis of a series of beta-substituted 1,2,4-oxadiazole butanoic acids as potent and selective alpha(v)beta3 receptor antagonists” (Bioorg Med Chem Lett, 2006).

Experiments:
Integrin alpha-V/beta-3 [1] = target: T1, Integrin alpha-V/beta-3 (Homo sapiens, UniProt P05106+P06756); test: Inhibition of Integrin alphav-beta3 receptor by SPRA assay; type: protein-complex assay
[2] = target: Integrin alpha-IIb/beta-3 (Homo sapiens, UniProt P05106+P08514); test: Inhibition of Integrin alpha-2b-beta-3 receptor by SPRA assay; type: protein-complex assay
[3] = Bioavailability in rat at 5 mg/kg, iv; type: ADME, organism-based; conditions: in vivo
[4] = Clearance in rat at 5 mg/kg, iv; type: ADME, organism-based; set-up: dose 5 mg/kg, route intravenous; conditions: in vivo
[5] = Volume of distribution in rat at 5 mg/kg, iv; type: ADME, organism-based; set-up: dose 5 mg/kg, route intravenous; conditions: in vivo, read-out: Vdss
Integrin alpha-V/beta-6 = Integrin alpha-V/beta-6 (Homo sapiens, UniProt P06756+P18564); test: Inhibition of Integrin alphav-beta6 receptor expressed in HT29 cell line; type: cell-based, HT-29
Integrin alpha-V/beta-6, sequence (P06756 31-889 limits assumed): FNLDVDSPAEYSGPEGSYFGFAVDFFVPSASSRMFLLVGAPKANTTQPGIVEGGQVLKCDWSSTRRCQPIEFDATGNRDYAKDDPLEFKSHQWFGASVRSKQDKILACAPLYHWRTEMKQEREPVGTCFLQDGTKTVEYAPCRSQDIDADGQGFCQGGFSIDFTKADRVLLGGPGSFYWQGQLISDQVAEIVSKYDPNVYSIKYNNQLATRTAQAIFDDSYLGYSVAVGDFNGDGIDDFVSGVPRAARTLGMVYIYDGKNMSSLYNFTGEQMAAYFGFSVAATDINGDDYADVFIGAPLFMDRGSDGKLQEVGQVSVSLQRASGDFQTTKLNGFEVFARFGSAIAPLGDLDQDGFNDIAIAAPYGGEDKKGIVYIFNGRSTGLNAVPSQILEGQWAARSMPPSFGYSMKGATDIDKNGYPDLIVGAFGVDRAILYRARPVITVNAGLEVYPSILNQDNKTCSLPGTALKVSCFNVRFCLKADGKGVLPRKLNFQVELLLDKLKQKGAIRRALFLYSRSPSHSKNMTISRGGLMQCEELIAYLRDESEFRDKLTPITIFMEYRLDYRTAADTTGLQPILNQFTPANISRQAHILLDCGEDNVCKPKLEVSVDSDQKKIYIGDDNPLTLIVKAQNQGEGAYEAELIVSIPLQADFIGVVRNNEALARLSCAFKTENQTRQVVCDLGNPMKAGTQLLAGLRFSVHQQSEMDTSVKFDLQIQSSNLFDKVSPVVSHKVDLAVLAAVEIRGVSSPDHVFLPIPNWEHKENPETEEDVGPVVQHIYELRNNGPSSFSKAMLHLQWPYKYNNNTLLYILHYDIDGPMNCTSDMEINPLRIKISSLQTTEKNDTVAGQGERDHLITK
Integrin alpha-V/beta-6, sequence (P06756 891-1048 limits assumed): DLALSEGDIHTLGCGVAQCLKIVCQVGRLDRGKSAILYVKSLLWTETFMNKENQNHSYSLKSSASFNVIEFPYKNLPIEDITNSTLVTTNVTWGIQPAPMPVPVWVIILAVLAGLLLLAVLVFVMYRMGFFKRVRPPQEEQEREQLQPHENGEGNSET
Integrin alpha-V/beta-6, sequence (P18564 22-788 limits assumed): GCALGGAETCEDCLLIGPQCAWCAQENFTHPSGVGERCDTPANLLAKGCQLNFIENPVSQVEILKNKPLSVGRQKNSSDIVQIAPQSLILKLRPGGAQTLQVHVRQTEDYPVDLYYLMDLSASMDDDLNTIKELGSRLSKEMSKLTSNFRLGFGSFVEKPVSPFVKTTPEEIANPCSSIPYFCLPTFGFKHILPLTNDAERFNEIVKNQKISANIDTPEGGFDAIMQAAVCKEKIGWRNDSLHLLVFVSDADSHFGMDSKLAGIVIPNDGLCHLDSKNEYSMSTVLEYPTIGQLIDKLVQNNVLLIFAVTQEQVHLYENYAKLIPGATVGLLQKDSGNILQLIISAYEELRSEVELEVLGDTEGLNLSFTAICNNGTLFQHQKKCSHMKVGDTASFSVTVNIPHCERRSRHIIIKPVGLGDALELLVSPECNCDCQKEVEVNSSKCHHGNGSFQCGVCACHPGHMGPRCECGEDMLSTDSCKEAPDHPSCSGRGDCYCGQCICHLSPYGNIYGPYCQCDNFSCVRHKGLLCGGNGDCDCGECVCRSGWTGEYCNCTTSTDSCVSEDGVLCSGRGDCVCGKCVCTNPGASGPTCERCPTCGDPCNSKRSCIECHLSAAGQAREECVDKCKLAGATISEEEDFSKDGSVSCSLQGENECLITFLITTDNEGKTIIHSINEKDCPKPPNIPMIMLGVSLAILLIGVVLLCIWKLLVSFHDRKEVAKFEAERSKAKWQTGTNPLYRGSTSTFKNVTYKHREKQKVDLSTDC

Integrin alpha-V/beta-5 = Integrin alpha-V/beta-5 (Homo sapiens, UniProt P06756+P18084); test: Inhibition of Integrin alphav-beta5 receptor expressed in HEK293 cell line; type: cell-based
Integrin alpha-V/beta-5, sequence (P06756 31-889 limits assumed): as the sequence (P06756 31-889 limits assumed) above
Integrin alpha-V/beta-5, sequence (P06756 891-1048 limits assumed): as the sequence (P06756 891-1048 limits assumed) above
Integrin alpha-V/beta-5, sequence (P18084 24-799 limits assumed): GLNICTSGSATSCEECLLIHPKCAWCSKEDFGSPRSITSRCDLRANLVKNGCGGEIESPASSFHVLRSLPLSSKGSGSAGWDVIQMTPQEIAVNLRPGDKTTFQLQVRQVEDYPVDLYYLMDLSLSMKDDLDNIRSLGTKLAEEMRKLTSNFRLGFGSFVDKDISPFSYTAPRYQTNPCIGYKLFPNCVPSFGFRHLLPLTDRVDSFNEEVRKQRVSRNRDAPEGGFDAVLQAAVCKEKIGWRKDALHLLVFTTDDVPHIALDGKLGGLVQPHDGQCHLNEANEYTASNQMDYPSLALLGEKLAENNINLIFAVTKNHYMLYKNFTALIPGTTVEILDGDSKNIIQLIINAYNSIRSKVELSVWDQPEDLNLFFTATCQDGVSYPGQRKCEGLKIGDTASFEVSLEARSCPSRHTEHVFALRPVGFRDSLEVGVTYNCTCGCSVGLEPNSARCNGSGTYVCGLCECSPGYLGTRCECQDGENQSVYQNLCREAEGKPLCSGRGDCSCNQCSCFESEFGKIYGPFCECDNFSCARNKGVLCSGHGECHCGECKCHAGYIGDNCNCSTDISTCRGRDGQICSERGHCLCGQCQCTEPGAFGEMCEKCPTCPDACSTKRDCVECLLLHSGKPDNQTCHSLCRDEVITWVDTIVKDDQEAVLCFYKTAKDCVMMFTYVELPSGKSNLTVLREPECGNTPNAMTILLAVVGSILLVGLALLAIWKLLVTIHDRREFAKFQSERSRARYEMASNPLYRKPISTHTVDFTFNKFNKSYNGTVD

[6] = Half life in rat at 5 mg/kg, iv; type: ADME, organism-based; set-up: dose 5 mg/kg, route intravenous; conditions: in vivo
Integrin alpha-V/beta-1 = Integrin alpha-V/beta-1 (Homo sapiens, UniProt P05556+P06756); test: Inhibition of Integrin alphav-beta1 receptor expressed in HEK293 cell line; type: cell-based
Integrin alpha-V/beta-1, sequence (P05556 21-798 limits assumed): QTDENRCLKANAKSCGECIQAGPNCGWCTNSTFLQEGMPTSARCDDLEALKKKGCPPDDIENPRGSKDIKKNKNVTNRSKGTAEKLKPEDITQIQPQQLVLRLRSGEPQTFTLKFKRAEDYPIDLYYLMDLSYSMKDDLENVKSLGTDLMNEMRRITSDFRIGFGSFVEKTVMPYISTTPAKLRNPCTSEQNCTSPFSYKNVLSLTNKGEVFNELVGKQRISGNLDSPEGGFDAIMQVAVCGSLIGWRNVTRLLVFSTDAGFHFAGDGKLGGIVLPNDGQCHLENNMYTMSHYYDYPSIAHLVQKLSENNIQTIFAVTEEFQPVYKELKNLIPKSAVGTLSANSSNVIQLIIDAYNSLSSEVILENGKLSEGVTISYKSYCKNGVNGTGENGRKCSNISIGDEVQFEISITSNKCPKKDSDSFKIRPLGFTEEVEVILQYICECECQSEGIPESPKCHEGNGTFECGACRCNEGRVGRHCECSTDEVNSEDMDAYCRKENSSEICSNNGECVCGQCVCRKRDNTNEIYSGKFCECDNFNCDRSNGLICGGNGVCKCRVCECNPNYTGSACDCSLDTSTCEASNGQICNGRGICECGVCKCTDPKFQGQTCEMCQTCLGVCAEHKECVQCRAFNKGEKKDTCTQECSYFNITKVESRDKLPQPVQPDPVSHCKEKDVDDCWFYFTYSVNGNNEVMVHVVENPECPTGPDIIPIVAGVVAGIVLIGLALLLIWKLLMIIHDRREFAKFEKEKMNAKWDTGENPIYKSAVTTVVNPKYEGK
Integrin alpha-V/beta-1, sequence (P06756 31-889 limits assumed): as the sequence (P06756 31-889 limits assumed) above
Integrin alpha-V/beta-1, sequence (P06756 891-1048 limits assumed): as the sequence (P06756 891-1048 limits assumed) above

Rattus norvegicus = test: AUC/dose(mg/kg) in orally dosed rat at 10 mg/kg; type: ADME, organism-based, Plasma; set-up: dose 10 mg/kg, route oral; conditions: in vivo, po
Integrin alpha-V/beta-3 [7] = target: T1, Integrin alpha-V/beta-3; test: Inhibition of Integrin alphav-beta3 receptor expressed in HEK293 cells; type: cell-based

T1 sequence (P05106 27-788 limits assumed): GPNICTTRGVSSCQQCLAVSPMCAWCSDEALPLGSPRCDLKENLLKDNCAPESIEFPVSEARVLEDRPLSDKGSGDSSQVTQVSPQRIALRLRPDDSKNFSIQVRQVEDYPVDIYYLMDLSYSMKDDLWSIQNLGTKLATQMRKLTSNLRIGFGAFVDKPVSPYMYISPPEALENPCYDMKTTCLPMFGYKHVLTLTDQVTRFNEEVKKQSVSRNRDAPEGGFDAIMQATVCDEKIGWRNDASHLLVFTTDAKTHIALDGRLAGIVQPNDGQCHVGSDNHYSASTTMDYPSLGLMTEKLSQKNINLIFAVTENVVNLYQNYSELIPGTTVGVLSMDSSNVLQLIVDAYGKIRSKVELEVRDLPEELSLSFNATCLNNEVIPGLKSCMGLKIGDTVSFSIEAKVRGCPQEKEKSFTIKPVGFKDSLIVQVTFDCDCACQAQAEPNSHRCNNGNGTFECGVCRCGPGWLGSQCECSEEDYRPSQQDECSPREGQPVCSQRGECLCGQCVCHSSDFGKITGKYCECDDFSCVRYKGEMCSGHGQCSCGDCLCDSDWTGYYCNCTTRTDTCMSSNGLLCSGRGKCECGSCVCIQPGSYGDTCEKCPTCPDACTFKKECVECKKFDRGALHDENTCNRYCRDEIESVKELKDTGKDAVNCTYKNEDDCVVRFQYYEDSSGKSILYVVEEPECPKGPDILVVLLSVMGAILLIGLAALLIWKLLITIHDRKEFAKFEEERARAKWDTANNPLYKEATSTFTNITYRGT
T1 sequence (P06756 31-889 limits assumed): as the sequence (P06756 31-889 limits assumed) above
T1 sequence (P06756 891-1048 limits assumed): as the sequence (P06756 891-1048 limits assumed) above

Row | IC50 (Integrin alpha-V/beta-3 [1]) | IC50 [2] | bioavailability [3] | clearance [4] | Vd [5] | IC50 (Integrin alpha-V/beta-6) | IC50 (Integrin alpha-V/beta-5) | half-life [6] | IC50 (Integrin alpha-V/beta-1) | AUC/dose (Rattus norvegicus) | IC50 (Integrin alpha-V/beta-3 [7]) | Structure (SMILES)
1 | 20 nM | 12600 nM | – | – | – | – | – | – | – | – | – | CC(C)(CC(=O)O)Cc1nc(CCCc2ccc3c(n2)NCCC3)no1
2 | 0.4 nM | 27 nM | 95% | 10.9 mL/min/kg | 0.733 L/kg | 2660 nM | 1.7 nM | 1.4 h | 2.6 nM | 1500 ng·h/mL/(mg/kg) | 0.65 nM | O=C(O)C[C@H](Cc1nc(CCCc2ccc3c(n2)NCCC3)no1)c1ccc2c(c1)OCO2
3 | 1 nM | 187 nM | 100% | 12 mL/min/kg | 0.694 L/kg | – | – | 1.1 h | – | 1910 ng·h/mL/(mg/kg) | – | COc1ccc(C(CC(=O)O)Cc2nc(CCCc3ccc4c(n3)NCCC4)no2)cn1 (stereo not given)
4 | 2.1 nM | 224 nM | 63% | 17.3 mL/min/kg | 0.803 L/kg | 3020 nM | – | 1.2 h | 9.7 nM | 970 ng·h/mL/(mg/kg) | 0.63 nM | O=C(O)CC(Cc1nc(CCCc2ccc3c(n2)NCCC3)no1)c1ccc2c(c1)OCC2 (stereo not given)
5 | 9.5 nM | 8130 nM | – | – | – | – | – | – | – | – | – | O=C(O)CC1(Cc2nc(CCCc3ccc4c(n3)NCCC4)no2)CCCC1
6 | 160 nM | 32500 nM | – | – | – | – | – | – | – | – | – | O=C(O)CCCc1nc(CCCc2ccc3c(n2)NCCC3)no1
7 | 12 nM | 9300 nM | – | – | – | – | – | – | – | – | – | CC(CC(=O)O)Cc1nc(CCCc2ccc3c(n2)NCCC3)no1 (stereo not given)
8 | 1.28 nM | 423 nM | – | – | – | – | – | – | – | – | – | Cc1ncc(C(CC(=O)O)Cc2nc(CCCc3ccc4c(n3)NCCC4)no2)s1 (stereo not given)
9 | 0.5 nM | 65.4 nM | – | – | – | 486 nM | – | – | 2.7 nM | – | 0.32 nM | O=C(O)CC(Cc1nc(CCCc2ccc3c(n2)NCCC3)no1)c1ccc2ncoc2c1 (stereo not given)
10 | 1.8 nM | 747 nM | – | – | – | – | – | – | – | – | – | O=C(O)CC(Cc1nc(CCCc2ccc3c(n2)NCCC3)no1)c1ccccc1 (stereo not given)
11 | 1.43 nM | 168 nM | 96% | 5.56 mL/min/kg | 0.497 L/kg | 1590 nM | 1.2 nM | 1.8 h | – | 3050 ng·h/mL/(mg/kg) | 0.6 nM | O=C(O)CC(Cc1nc(CCCc2ccc3c(n2)NCCC3)no1)c1cnc(C2CC2)s1 (stereo not given)
12 | 8.7 nM | 1220 nM | – | – | – | 6240 nM | 4 nM | – | – | – | 4 nM | C#CC(CC(=O)O)Cc1nc(CCCc2ccc3c(n2)NCCC3)no1 (stereo not given)
13 | 1.75 nM | 419 nM | – | – | – | 3730 nM | 3.7 nM | – | – | – | 1.1 nM | O=C(O)CC(Cc1nc(CCCc2ccc3c(n2)NCCC3)no1)c1cccc(F)c1 (stereo not given)
14 | 1.6 nM | 474 nM | – | – | – | 2420 nM | 3.3 nM | – | – | – | 0.77 nM | O=C(O)CC(Cc1nc(CCCc2ccc3c(n2)NCCC3)no1)c1cccnc1 (stereo not given)

Second part, the compound before the results:

Row | Structure (SMILES) | IC50 (Integrin alpha-V/beta-3 [1]) | IC50 [2] | bioavailability [3] | clearance [4] | Vd [5] | IC50 (Integrin alpha-V/beta-6) | IC50 (Integrin alpha-V/beta-5) | half-life [6] | IC50 (Integrin alpha-V/beta-1) | AUC/dose (Rattus norvegicus) | IC50 (Integrin alpha-V/beta-3 [7])
15 | O=C(O)CC(Cc1nc(CCCc2ccc3c(n2)NCCC3)no1)c1cnc2ccccc2c1 (stereo not given) | 0.65 nM | 18 nM | 66% | 19.1 mL/min/kg | 0.622 L/kg | – | – | 1.1 h | – | 600 ng·h/mL/(mg/kg) | –
16 | CNc1cccc(CCCc2noc(CC(CC(=O)O)c3ccc4c(c3)OCO4)n2)n1 (stereo not given) | 2.1 nM | 278 nM | – | – | – | > 10000 nM | 16 nM | – | – | – | 3.2 nM
17 | CC(CC(=O)O)(Cc1nc(CCCc2ccc3c(n2)NCCC3)no1)c1cccnc1 (stereo not given) | 3.6 nM | 950 nM | – | – | – | – | – | – | – | – | –
18 | O=C(O)C[C@H](Cc1nc(CCCCNc2cc(N3CCOCC3)ccn2)no1)c1ccc2c(c1)OCO2 | 0.78 nM | 17 nM | – | – | – | 4360 nM | 4.6 nM | – | – | – | 0.74 nM
19 | O=C(O)CC(Cc1nc(CCCc2ccc3c(n2)NCCC3)no1)c1cnn(-c2ccccc2)c1 (stereo not given) | 1.2 nM | 216 nM | – | – | – | – | – | – | – | – | –
20 | CC(CC(=O)O)(Cc1nc(CCCc2ccc3c(n2)NCCC3)no1)c1ccccc1 (stereo not given) | 116 nM | 35800 nM | – | – | – | – | – | – | – | – | –
21 | O=C(O)C[C@H](Cc1nc(CCCCNc2cc(N3CCSCC3)ccn2)no1)c1ccc2c(c1)OCO2 | 0.26 nM | 22 nM | 29% | 78 mL/min/kg | 0.897 L/kg | 2670 nM | 2.9 nM | 0.4 h | – | 60 ng·h/mL/(mg/kg) | 0.62 nM
22 | COc1ccnc(NCCCCc2noc(C[C@@H](CC(=O)O)c3ccc4c(c3)OCO4)n2)c1 | 1.1 nM | 64 nM | – | – | – | – | – | – | – | – | –
23 | CN1CCNc2nc(CCCc3noc(CC(CC(=O)O)c4ccc5c(c4)OCO5)n3)ccc21 (stereo not given) | 1.7 nM | – | 77% | 18.2 mL/min/kg | 0.447 L/kg | – | – | 0.93 h | – | 710 ng·h/mL/(mg/kg) | –
24 | O=C(O)C[C@H](Cc1nc(CCCCNc2ccccn2)no1)c1ccc2c(c1)OCO2 | 2.4 nM | 126 nM | – | – | – | – | – | – | – | – | –
25 | Cc1ccnc(NCCCCc2noc(C[C@@H](CC(=O)O)c3ccc4c(c3)OCO4)n2)c1 | 2 nM | 91 nM | – | – | – | – | – | – | – | – | –
